Legend:
Format in all cases: biochemical, porcine
liver PMPMEase = test system: liver PMPMEase
brain PMPMEase = test system: brain PMPMEase
Purified PMPMEase = molecular target: T1, Purified PMPMEase (Sus scrofa, UniProt Q29550)
T1 construct: from tissue; host or cells: porcine liver supernatant, purified by column chromatography
T1 sequence (Q29550 19-566): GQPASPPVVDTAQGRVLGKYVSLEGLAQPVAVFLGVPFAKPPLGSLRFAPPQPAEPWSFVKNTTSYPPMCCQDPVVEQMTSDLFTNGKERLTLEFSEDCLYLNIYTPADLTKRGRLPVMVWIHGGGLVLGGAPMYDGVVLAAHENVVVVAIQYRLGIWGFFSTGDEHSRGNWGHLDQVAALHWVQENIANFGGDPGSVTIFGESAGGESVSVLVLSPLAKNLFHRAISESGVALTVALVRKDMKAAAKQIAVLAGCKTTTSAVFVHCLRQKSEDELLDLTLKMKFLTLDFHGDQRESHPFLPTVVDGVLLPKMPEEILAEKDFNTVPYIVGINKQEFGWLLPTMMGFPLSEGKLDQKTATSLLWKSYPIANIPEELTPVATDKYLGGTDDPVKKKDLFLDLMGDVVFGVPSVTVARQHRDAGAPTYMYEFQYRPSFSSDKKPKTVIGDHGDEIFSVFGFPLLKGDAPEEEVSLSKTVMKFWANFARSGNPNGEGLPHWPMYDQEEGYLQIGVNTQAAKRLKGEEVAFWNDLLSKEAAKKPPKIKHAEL

SMILES	Liver Mean (mean percent inhibition relative to the controls) (liver PMPMEase)	Brain Mean (mean percent inhibition relative to the controls) (brain PMPMEase)	Residual activity (% of Control, SEM, n = 3) 0.01 mM (Purified PMPMEase)	Residual activity (% of Control, SEM, n = 3) 1 mM (Purified PMPMEase)
COP(=S)(OC)Oc1ccc(Sc2ccc(OP(=S)(OC)OC)cc2)cc1 [Abate]	80%	59%	–	–
COC(=O)NS(=O)(=O)c1ccc(N)cc1 [Asulam]	–	–	113 ± 6.3 % of Control	91.7 ± 6.9 % of Control
COP(=S)(OC)SCn1nnc2ccccc2c1=O [Azinphos-M]	47%	73%	–	–
CCOP(=S)(OCC)Oc1cc(Cl)c(Br)cc1Cl [Bromophos-E]	76%	68%	–	–
CCOP(=S)(OCC)SCSc1ccc(Cl)cc1 [Carbophenothion]	49%	55%	–	–
CCOP(=S)(OCC)SCCl [Chlormefos]	86%	65%	–	–
CCOP(=S)(OCC)ON=C(C#N)c1ccccc1Cl [Chlorphoxim]	100%	55%	–	–
CCOP(=S)(OCC)Oc1nc(Cl)c(Cl)cc1Cl [Chlorpyriphos]	100%	67%	–	–
CCOP(=S)(OCC)Oc1cc(Cl)c(SC)cc1Cl [Chlorthiophos]	52%	22%	–	–
CCOP(=S)(OCC)Oc1ccc2c(C)c(Cl)c(=O)oc2c1 [Coumaphos]	46%	62%	–	–
COP(=S)(Oc1ccc(C#N)cc1)c1ccccc1 (stereo not drawn) [Cyamophenphos]	53%	52%	–	–
COP(=S)(OC)Oc1ccc(C#N)cc1 [Cyanophos]	89%	65%	–	–
CCSCCSP(=O)(OC)OC [Demeton-S-M]	12%	31%	–	–
CCOP(=O)(OCC)SCCSCC [Demeton-S]	96%	62%	–	–
CCOP(=S)(OCC)SC(CCl)N1C(=O)c2ccccc2C1=O (stereo not drawn) [Dialifos]	96%	52%	–	–
CCOP(=S)(OCC)Oc1cc(C)nc(C(C)C)n1 [Diazinon]	95%	31%	–	–
CCOP(=S)(OCC)Oc1ccc(Cl)cc1Cl [Dichlofenthion]	56%	NO INHIBITION	–	–
COP(=O)(OC)OC=C(Cl)Cl [Dichlorvos]	83%	81%	–	–
CNC(=O)CSP(=S)(OC)OC [Dimethoate]	12%	–	–	–
CCOP(=S)(OCC)SC1OCCOC1SP(=S)(OCC)OCC (stereo not drawn) [Dioxathion]	57%	15%	–	–
CCOP(=S)(OCC)SCCSCC [Disulfoton]	38%	NO INHIBITION	–	–
CCOP(=S)(OCC)SCSP(=S)(OCC)OCC [Ethion]	92%	NO INHIBITION	–	–
CCOc1cc(OP(=S)(OC)OC)nc(CC)n1 [Etrimfos]	100%	78%	–	–
COP(=S)(OC)Oc1ccc(S(=O)(=O)N(C)C)cc1 [Famphur]	71%	60%	–	–
COP(=S)(OC)Oc1ccc([N+](=O)[O-])c(C)c1 [Fenitrothion]	98%	75%	–	–
CCOP(=S)(OCC)Oc1ccc([S+](C)[O-])cc1 (stereo not drawn) [Fensulfothion]	100%	100%	–	–
COP(=S)(OC)Oc1ccc(SC)c(C)c1 [Fenthion]	40%	17%	–	–
COP(=S)(OC)Oc1cc(Cl)c(I)cc1Cl [Jodfenphos]	96%	69%	–	–
COP(=S)(Oc1cc(Cl)c(Br)cc1Cl)c1ccccc1 (stereo not drawn) [Leptophos]	60%	29%	–	–

Source: patent US8097722B2 (priority 2008, dated 2012)
